Where a SMILES comes first, the peptide text is derived from it.
Tests used:
[1] = system: enzyme derived from Sphingobacterium sp. strain FERM BP-8124 (SP-Sepharose HP fraction enzyme); assay: Enzyme substrate specificity (11), (12): peptide production; format: biochemical; conditions: amides and methylamine; carboxy component 100 mM, amine component 150 mM, 0.33 units enzyme, pH 9.0, 25° C., 1.5 hours
Outline: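 Peptide and oligopeptide formation catalysed by SP-Sepharose HP-fraction enzyme from Sphingobacterium sp. FERM BP-8124; carboxy components used as hydrochloride salts, 0.1% Tween-80 final added with L-Tyr-OMe. Products quantified; "+" denotes detected but unquantified (no standard), "tr" trace.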

[2] = system: microbial cells of Sphingobacterium sp. strain FERM BP-8124; assay: Production of L-alanyl-L-glutamine using microbial cells of Sphingobacterium sp.; format: cell-based; conditions: 0.1 mL cell suspension (100 g/L) + 0.1 mL buffer with 200 mM L-alanine methyl ester hydrochloride, 400 mM L-glutamine; pH 9.0, 25° C., 120 minutes
Experimental: A 50 ml medium (pH 7.0) containing 5 g of glucose, 5 g of ammonium sulfate, 1 g of monopotassium phosphate, 3 g of dipotassium phosphate, 0.5 g of magnesium sulfate, 10 g of yeast extract, and 10 g of peptone in 1 L was transferred to a 500 mL Sakaguchi flask and sterilized at 11 5° C. for 15 minutes for culturing Sphingobacterium sp. strain FERM BP-8124 (Depositary institution: the independent administrative corporation, National Institute of Advanced Industrial Science and Technology, International Patent Organism Depositary, Address of depositary institution: Chuo Dai-6, 1-1 Higashi 1-Chome, Tsukuba-shi, Ibaraki-ken, Japan, International deposit date: Jul. 22, 2002). This medium was then inoculated with one loopful cells of Sphingobacterium sp. strain FERM BP-8124 (Depositary institution: the independent administrative corporation, National Institute of Advanced Industrial Science and Technology, International Patent Organism Depositary, Address of depositary institution: Chuo Dai-6, 1-1 Higashi 1-Chome, Tsukuba-shi, Ibaraki-ken, Japan, International deposit date: Jul. 22, 2002) cultured at 30° C. for 24 hours in a slant agar medium (agar: 20 g/L, pH 7.0) containing 5 g of glucose, 10 g of yeast extract, 10 g of peptone and 5 g of NaCl in 1 L, followed by shake culturing at 30° C. for 20 hours and 120 strokes/minute. […]

[3] = system: peptide-forming enzyme (Mono S fraction enzyme); assay: Production of L-alanyl-L-glutamine from L-alanine methyl ester and L-glutamine with enzyme fraction; format: biochemical, Empedobacter brevis; conditions: for L-Ala-L-Gln: L-alanine methyl ester hydrochloride 100 mM, 18° C., 2 hours
Experimental: On the other hand, there was hardly any production of L-Ala-L-Gln observed in an enzyme-non-added lot, and the […] was only about 0.07 mM after reacting for 120 minutes.

Produced peptide (Table 15-4) [1]: 0.3 mM
Peptide formed, enzyme-added lot ([3]; 100 mM L-alanine methyl ester hydrochloride, 200 mM L-glutamine, 10 mM EDTA, pH 9.0, 18° C., FIG. 3): 83 mM
L-Ala-L-Gln ([3]; L-glutamine 100 mM): 68.2 mM
L-Ala-L-Gln ([3]; L-glutamine 110 mM): 72.1 mM
L-Ala-L-Gln ([3]; L-glutamine 120 mM): 73.3 mM
L-Ala-L-Gln ([3]; L-glutamine 130 mM): 75.1 mM
L-Ala-L-Gln ([3]; L-glutamine 150 mM): 75.5 mM
L-Ala-L-Gln ([3]; L-glutamine 200 mM): 82.0 mM
SMILES: C[C@H](N)C(=O)N[C@@H](CCC(N)=O)C(=O)O [L-Ala-L-Gln, L-alanyl-L-glutamine] (H-Ala-Gln-OH)
L-alanyl-L-glutamine formed [2]: 62 mM

From patent US20040204577A1, “Novel peptide-forming enzyme gene” (Ajinomoto Co., Inc., priority 2003, published 2004)
